Reference: patent US4156009A, “Diazepine derivatives” (Hexachimie, priority 1977, dated 1979)

Legend:
[1] = system: ulcers caused by phenylbutazone; assay: Protective activity as regards ulcers caused by phenylbutazone; assay type: in vivo, rat (male, OFA strain); conditions: for Ulceration Index: maximum index 300
Method: Male rats, of the OFA strain, weighing 160-180 g are placed on a diet of water 24 hours before the oral administration of the product studied (1 cm^3 /100 g). 30 minutes later, the rats receive 150 mg/kg phenylbutazone (1 cm^3 /100 g) orally.
The stomachs are removed 6 hours after the last treatment. Each stomach is classified according to the following scale:
The average of the results for a batch, multiplied by the percentage of rats having ulcers in this batch, gives an ulceration index whose maximum is 300.
The following Table I gives the ulceration indices and the protective dose 50 (PD50) which corresponds to the index 150.

Shay ulcers = assay: Activity on Shay ulcers (pylorus ligation); assay type: in vivo, rat (male, OFA strain); conditions: 2 hours after binding; for Pepsin / pH / Volume / Acidity free / Acidity total: gastric liquid; for Acidity free / Acidity total: potentiometry; for Ulcers: number in the rumen; for Acidity free ds the secretion / Acidity total ds the secretion / Pepsin ds the secretion: whole secretion
Method: Male rats of the OFA strain, weighing 190-210 g, receive a solution of 20% glucose and […] sodium chloride as their only food for 3 days.
Under an ether anaesthetic, the pylorus is tied, while taking care not to include blood vessels in the binding. The tested product is administered intraperitoneally and the stomach is removed 2 hours after the binding. The gastric liquid is collected and the following parameters are measured:
free acidity (potentiometry)
total acidity (potentiometry)
peptic activity (hydrolysis of albumen of oxen and measurement of the tyrosine liberated).
The number of ulcers in the rumen are counted.

Acute toxicity = assay: Acute toxicity; parameters: species or system rat; conditions: in vivo
[2] = 8 mg/kg intraperitoneally, p < 0.05
[3] = 16 mg/kg intraperitoneally, p < 0.01
[4] = 32 mg/kg intraperitoneally, p < 0.001
[5] = 32 mg/kg intraperitoneally, p < 0.01

SMILES: CN1C(=O)CN=C(c2ccccc2)c2c(C3CC3)csc21 [Example 6, 6-Cyclopropyl-1,3-dihydro-1-methyl-5-phenyl-2-oxo-2H-thieno[2,3-e]diazepine]
- Ulceration Index ([1]; 16 mg/kg orally): 240
- Ulceration Index ([1]; 32 mg/kg orally): 179
- Ulceration Index ([1]; 64 mg/kg orally): 62
- Ulceration Index ([1]; 128 mg/kg orally): 29
- ED50 ([1]; Rattus norvegicus, po, orally, corresponds to ulceration index 150, read-out: PD50 (protective dose 50)): 39 mg/kg
- Pepsin (Shay ulcers; 8 mg/kg intraperitoneally, ns): 0.67 mg/mL
- pH (Shay ulcers; 8 mg/kg intraperitoneally, ns): 1.19
- Volume (Shay ulcers; [2]): 4.0 cm^3
- Acidity free (Shay ulcers; 8 mg/kg intraperitoneally, ns): 91 mEq/l
- Acidity total (Shay ulcers; 8 mg/kg intraperitoneally, ns): 109 mEq/l
- Pepsin (Shay ulcers; 16 mg/kg intraperitoneally, ns): 0.67 mg/mL
- pH (Shay ulcers; 16 mg/kg intraperitoneally, ns): 1.21
- Volume (Shay ulcers; [3]): 2.7 cm^3
- Acidity free (Shay ulcers; 16 mg/kg intraperitoneally, ns): 82 mEq/l
- Acidity total (Shay ulcers; 16 mg/kg intraperitoneally, ns): 102 mEq/l
- Pepsin (Shay ulcers; 32 mg/kg intraperitoneally, ns): 0.64 mg/mL
- Volume (Shay ulcers; [4]): 1.7 cm^3
- pH (Shay ulcers; 32 mg/kg intraperitoneally, p < 0.05): 1.67
- Acidity free (Shay ulcers; [5]): 56.5 mEq/l
- Acidity total (Shay ulcers; [5]): 80 mEq/l
- Ulcers (Shay ulcers; 8 mg/kg intraperitoneally): 0
- Ulcers (Shay ulcers; 16 mg/kg intraperitoneally): 0
- Ulcers (Shay ulcers; 32 mg/kg intraperitoneally): 0
- Acidity free ds the secretion (Shay ulcers; 8 mg/kg intraperitoneally, ns): 388 mEq/l
- Acidity total ds the secretion (Shay ulcers; 8 mg/kg intraperitoneally, ns): 459 mEq/l
- Pepsin ds the secretion (Shay ulcers; [2]): 2.66 mg
- Acidity free ds the secretion (Shay ulcers; [3]): 275 mEq/l
- Acidity total ds the secretion (Shay ulcers; [3]): 335 mEq/l
- Pepsin ds the secretion (Shay ulcers; [3]): 1.83 mg
- Acidity free ds the secretion (Shay ulcers; [4]): 145 mEq/l
- Acidity total ds the secretion (Shay ulcers; [4]): 189 mEq/l
- Pepsin ds the secretion (Shay ulcers; [4]): 1.14 mg
- LD50 (Acute toxicity; po, orally in the rat, read-out: lethal dose LD50): 915 mg/kg
- selectivity ratio (Acute toxicity; LD50 / PD50, oral, rat, read-out: ratio of toxicity/activity or therapeutic index): ~23
